Assay results: US20030199516A1, “Methods of treating infection by drug resistant bacteria” (Genesoft, Inc., priority 2001, published 2003)

Columns and labels:
[1] = test system: Enterococcus faecium ATCC 51559; test: NCCLS broth microdilution MIC; type: cell-based; conditions: Col. D = E. faecium ATCC 51559 (VRE)
Text: (§1) In vitro antibacterial activity data were collected for the following Gram-positive bacteria: Staphylococcus aureus (ATCC 27660, ATCC 33591 and ATCC 43300, all methicillin resistant strains (MRSA's)); Streptococcus pneumoniae (ATCC 51422, a penicillin resistant strain (PRSP)), Enterococcus faecium (ATCC 51559, and/or a vancomycin resistant strain (VRE)). Additionally, antifungal activity data were collected for Candida albicans (ATCC 38247). Minimal inhibition concentrations (MIC's) were determined using the National Committee for Clinical Laboratory Standards (NCCLS) broth microdilution assay in microtiter plates, as set forth in: (1) the guidelines of the National Committee for Clinical Laboratory Standards (NCCLS) Document M7-A4 (NCCLS, 1997); (2) the guidelines of the National Committee for Clinical Laboratory Standards (NCCLS) Document M11-A4 (NCCLS, 1997); and (3) the guidelines and reference method of the National Committee for Clinical Laboratory Standards (NCCLS) Document M27-T (NCCLS, 1995). For antifungal essays, the method recommended in Murray, PR., 1995 Manual of Clinical Microbiology (ASM Press, Washington, D.C.), was employed.

[2] = test system: S. aureus ATCC 43300; test: NCCLS broth microdilution MIC; type: cell-based, Staphylococcus aureus; conditions: Col. C = S. aureus ATCC 43300 (MRSA)
Text: as §1

[3] = test system: S. aureus ATCC 33591; test: NCCLS broth microdilution MIC; type: cell-based, Staphylococcus aureus; conditions: Col. B = S. aureus ATCC 33591 (MRSA)
Text: as §1

[4] = test system: methicillin resistant Staphylococcus aureus ATCC 33591; test: Mouse protection assay; type: in vivo; conditions: balb/c mice, 50 mg/kg intravenously at 2, 8, 18 and 24 hours post infection; vehicle 14
Method: A S. aureus ATCC 33591 culture was grown to log phase overnight and diluted in phosphate buffered saline (pH 7.2) to an optical density of about 0.1 at 600 nm, giving an approximate concentration of 10^8 cfu/mL. Porcine mucin was added to the suspension to a final concentration of 5% mucin. The suspension was diluted 1:100 for a final concentration of 10^6 cfu/mL.
Female balb/c mice (20 g body weight) were injected intraperitoneally with 0.5 mL of bactenal suspension (10^6 cfu/mL). Vehicle (phosphate buffered saline, pH 7.2) or test compound were administered intravenously at 2, 8, 18, and 24 hours post infection. The animals were monitored twice daily and survival counts were recorded up to 48 hours post infection.

[5] = test system: Candida albicans ATCC 38247; test: Antifungal MIC; type: cell-based; conditions: Col. F = C. albicans ATCC 38247
Text: as §1

[6] = biological target: target sequence AATTAATCAT (352 bp fragment, Plasmid C); test: Quantitative DNase I footprint titration; type: binding; conditions: 352 bp C, 22° C., pH 7.0, read-out: Dissociation Constant Kd
Text: (§2) Compounds (1) through (20) according to this invention were screened for their ability to bind to specified DNA target sequences, using DNase I footprinting. Generally, the procedure described in Dervan, WO 98/50582 (1998), was followed.
(§3) Three double stranded circular plasmids A, B, and C were used to prepare double stranded DNA-binding probes containing the target sequences for the DNase I footprint titration experiments. Plasmids A, B, and C had nucleotide sequences given by SEQ ID NO. I, SEQ ID NO. II, and SEQ ID NO. III, respectively.
(§4) The 3′-P32 end-labeled EcoRI/PvuII fragments from each plasmid were prepared by digesting the plasmids with EcoRI and PvuII with simultaneous fill-in using Sequenase v. 2.0, [alpha-P32]-deoxyadenosine-5′-triphosphate, and [alpha-P32]-thymidine-5′-triphosphate, and isolating the cloned fragments by nondenaturing gel electrophoresis. A and G sequencing reactions were carried out as described (See Maxam and Gilbert, Methods Enzymol., 1980, 65, 499-560; Iverson and Dervan, Methods Enzymol., 1987, 15, 7823-7830; Sambrook et al., 1989, Molecular Cloning, 2nd ed., Cold Spring Harbor Laboratory Press: Cold Spring Harbor, N.Y.) Standard methods were used for all DNA manipulations (Sambrook et al., ibid.) The cut sites for EcoRI and PvuII are indicated by bars in the respective maps of Plasmids A, B, and C in FIGS. 5, 6, and 7.
(§5) The 351 base pair dsDNA restriction fragment (SEQ ID NO. IV) of Plasmid A contained the target sequences AAAAAGCAAAAA, AAAAAGACAAAAA, and AAAAAGTACAAAAA. The 310 base pair dsDNA restriction fragment (SEQ ID NO. V) of Plasmid B contained the target sequences AGTACT, AATACT, and ATTACT. The 352 base pair dsDNA restriction fragment (SEQ ID NO. VI) of Plasmid C contained the target sequences TGACAATTAAT, GACAATTAATCA, AATTAATCAT, ACAATTA, and ACAATTAAT. These fragments were used for quantitative DNase I footprinting experiments. Compounds used in the method of this invention bind to at least one of the target sites with a equal to or less than 100 nM, preferably equal to or less than 50 nM, and more preferably equal to or less than 20 nM. The target sequences were selected for the identity with, or similarity to, promoter sites for bacterial genes.
(§6) Quantitative DNase I footprint titration experiments were carried out as described previously (Dervan, WO 98/50582, 1998) with the following changes. All reactions were carried out in a total volume of 400 μL, with compound stock solution or water added to 15,000 cpm radiolabeled restriction fragment affording final solution conditions of 10 mM Tris HCl, 10 mM KCl, 10 mM MgCl2, 5 mM CaCl2, pH 7.0 and 0.01 nM, 0.1 nM, 1.0 nM, 10.0 nM compound or no compound for reference lanes. The compounds were allowed to equilbrate at 22° C. for 16 h. Footprinting reactions were initiated with addition of 10 μL of a DNase I stock solution (at the appropriate concentration to give ˜50% intact DNA) containing 1 mM DTT and allowed to proceed for 7 min at 22° C. The reactions were stopped, ethanol precipitated, resuspended in loading buffer, heat denatured, and placed on ice as described previously (Dervan WO 98/50582, 1998). The reaction products were separated on a precast 8% polyacrylamide denaturing sequencing Castaway gel with 32 preformed wells from Stratagene in 1×TBE at 2000 V. Gels were dried according to the manufacturer and exposed to a storage phosphor screen (Molecular Dynamics). Quantitation and data analysis were carried out as described in Dervan, WO 98/50582, 1998.

[7] = test system: Streptococcus pneumoniae ATCC 51422; test: NCCLS broth microdilution MIC; type: cell-based; conditions: Col. E = S. pneumoniae ATCC 51422 (PRSP)
Text: as §1

[8] = test system: S. aureus ATCC 27660; test: NCCLS broth microdilution MIC; type: cell-based, Staphylococcus aureus; conditions: Col. A = S. aureus ATCC 27660 (MRSA)
Text: as §1

[9] = test system: methicillin resistant Staphylococcus aureus ATCC 33591; test: Murine neutropenic thigh model; type: in vivo; conditions: neutropenic CF1 mice
Method: A S. aureus ATCC 33591 culture was grown to log phase overnight and diluted in phosphate buffered saline (pH 7.2) to an optical density of about 0.1 at 600 nm, giving an approximate concentration of 10^8 cfu/mL. The suspension was diluted 1:100 in phosphate buffered saline (pH 7.2) for a final concentration of 10^6 cfu/mL.
Outbred female CFI mice (approx. 20 gram body weight) were rendered netutropenic by treatment with cyclophosphamide (200 mg/kg body weight, intraperitoneal injection) at 2 and 4 days prior to inoculation. Groups of 5 mice were inoculated with 0.05 mL of the bacteria (approx. 10^6 cfu/mL) into the anterior thigh. Each group was treated intravenously two hours post infection with vehicle (phosphate buffered saline) or test compound. The mice were sacrificed at either 6 or 24 hrs after treatment and thighs were collected aseptically. Each thigh was weighed, placed into sterile saline, and homogenized. The tissue homogenates were diluted appropriately for plating on agar plates. Colony counts were recorded (cfu/gram) and compared to control groups.

[10] = biological target: target sequence GACAATTAATCA (352 bp fragment, Plasmid C); test: Quantitative DNase I footprint titration; type: binding; conditions: 352 bp C, 22° C., pH 7.0, read-out: Dissociation Constant Kd
Text: as §2, §3, §4, §5, §6

[11] = biological target: target sequence ACAATTAAT (352 bp fragment, Plasmid C); test: Quantitative DNase I footprint titration; type: binding; conditions: 352 bp C, 22° C., pH 7.0, read-out: Dissociation Constant Kd
Text: as §2, §3, §4, §5, §6

[12] = biological target: target sequence AGTACT (310 bp fragment, Plasmid B); test: Quantitative DNase I footprint titration; type: binding; conditions: 310 bp B, 22° C., pH 7.0, read-out: Dissociation Constant Kd
Text: as §2, §3, §4, §5, §6

| Structure (SMILES) | Minimum Inhibitory Concentration (MIC) [1] | Minimum Inhibitory Concentration (MIC) [2] | Minimum Inhibitory Concentration (MIC) [3] | Survival at 48 hrs [4] | Minimum Inhibitory Concentration (MIC) [5] | Kd [6] | Minimum Inhibitory Concentration (MIC) [7] | Minimum Inhibitory Concentration (MIC) [8] | Colony Count ([9]; 80 mg/kg intravenously 2 h post infection, 6 hr after treatment, vehicle 7.83) | Kd [10] | Colony Count ([9]; 50 mg/kg intravenously 2 h post infection, 24 hr after treatment, vehicle 8.03) | Kd [11] | Kd [12] | MIC ([8]; Staphylococcus aureus, read-out: Minimum Inhibitory Concentration (MIC)) | MIC ([5]; Candida albicans, ATCC38247, read-out: Minimum Inhibitory Concentration (MIC)) |
| --- | --- | --- | --- | --- | --- | --- | --- | --- | --- | --- | --- | --- | --- | --- | --- |
| Cn1cc(NC(=O)c2cc(NC(=O)c3cc(NC(=O)c4sccc4Cl)cn3C)cn2C)cc1C(=O)NCCN1CCOCC1 [Compound 6] | ++ (++ = MIC ≦ 1) | − (− = MIC > 2) | + (+ = MIC ≦ 2) | 86% | >32 mg/L | 20 nM |  |  |  |  |  |  |  |  |  |
| Cn1cc(NC(=O)c2cc(NC(=O)c3cc(NC(=O)c4sc5ccccc5c4Cl)c[nH]3)cn2C)cc1C(=O)NCCN1CCOCC1 [Compound 9] | + (+ = MIC ≦ 2) | + (+ = MIC ≦ 2) | ++ (++ = MIC ≦ 1) |  | >32 mg/L |  | ++ (++ = MIC ≦ 1) | ++ (++ = MIC ≦ 1) | 6.17 log cfu/gram | 0.1 nM |  |  |  |  |  |
| Cn1cc(NC(=O)c2sccc2Cl)cc1C(=O)Nc1cc(-c2nc3ccc(C(=O)NCCN4CCOCC4)cc3[nH]2)n(C)c1 [Compound 12] | ++ (++ = MIC ≦ 1) |  | − (− = MIC > 2) |  | >32 mg/L |  | ++ (++ = MIC ≦ 1) | ++ (++ = MIC ≦ 1) |  | ≤ 0.1 nM | 6.96 log cfu/gram |  |  |  |  |
| Cn1cc(NC(=O)c2cc(NC(=O)c3cc(NC(=O)c4cc5ccccc5cn4)cn3C)cn2C)cc1C(=O)NCCc1cccnc1 [Compound 14] | − (− = MIC > 2) |  | − (− = MIC > 2) |  | >32 mg/L |  | + (+ = MIC ≦ 2) | ++ (++ = MIC ≦ 1) |  |  |  | 5 nM |  |  |  |
| Cn1cc(NC(=O)c2cc3ccccc3cn2)cc1C(=O)Nc1cc(C(=O)Nc2cc(C(=O)NCCN3CCOCC3)n(CCN3CCOCC3)c2)n(C)c1 [Compound 17] | ++ (++ = MIC ≦ 1) |  | − (− = MIC > 2) |  | >32 mg/L | 5 nM | ++ (++ = MIC ≦ 1) | ++ (++ = MIC ≦ 1) |  |  |  |  | < 100 nM |  |  |
| Cn1cc(NC(=O)c2cc3ccccc3cn2)cc1C(=O)Nc1cc(C(=O)Nc2cc(C(=O)NCCN3CCCCC3)ns2)n(C)c1 [Compound 19] | ++ (++ = MIC ≦ 1) |  | + (+ = MIC ≦ 2) |  | >32 mg/L |  | ++ (++ = MIC ≦ 1) | ++ (++ = MIC ≦ 1) |  |  |  | 1 nM |  |  |  |
| Cn1cc(NC(=O)c2cc(NC(=O)c3cc(NC(=O)c4cc5ccccc5cn4)no3)cn2C)cc1C(=O)NCCN1CCOCC1 [Compound 20] |  |  |  |  |  | 5 nM |  |  |  |  |  |  | 10 nM | ≤ 1 mg/L | > 32 mg/L |
